Earlier results in patent US11147778B2, “Siderophore-polymer conjugates for increasing bacterial sensitivity to antibiotics” (Wisconsin Alumni Research Foundation, priority 2016, dated 2021).

Tests used:
Design in all cases: key: S = susceptible; I = intermediate; R = resistant
[1] = system: Pseudomonas aeruginosa 2638; conditions: strain 2638; cited from earlier work
[2] = system: Pseudomonas aeruginosa 3068; conditions: strain 3068; cited from earlier work
[3] = system: Pseudomonas aeruginosa 3070; conditions: strain 3070; cited from earlier work
[4] = system: Pseudomonas aeruginosa 9139; conditions: strain 9139; cited from earlier work
[5] = system: Pseudomonas aeruginosa 3072; conditions: strain 3072; cited from earlier work
[6] = system: Pseudomonas aeruginosa 3071; conditions: strain 3071; cited from earlier work
[7] = system: Pseudomonas aeruginosa 823; conditions: strain 823; cited from earlier work
[8] = system: Pseudomonas aeruginosa 26975; conditions: strain 26975; cited from earlier work
[9] = system: Pseudomonas aeruginosa 3076; conditions: strain 3076; cited from earlier work
[10] = system: Pseudomonas aeruginosa 24530; conditions: strain 24530; cited from earlier work

| Compound | Phenotype (drug resistance profile) [1] | Phenotype (drug resistance profile) [2] | Phenotype (drug resistance profile) [3] | Phenotype (drug resistance profile) [4] | Phenotype (drug resistance profile) [5] | Phenotype (drug resistance profile) [6] | Phenotype (drug resistance profile) [7] | Phenotype (drug resistance profile) [8] | Phenotype (drug resistance profile) [9] | Phenotype (drug resistance profile) [10] |
| --- | --- | --- | --- | --- | --- | --- | --- | --- | --- | --- |
| O=C(O)c1cn(C2CC2)c2cc(N3CCNCC3)c(F)cc2c1=O [CIP, ciprofloxacin] | CAZ-R, TZP-R, CIP-R, TOB-R | R | R | S | R | CAZ-R, TZP-R, CIP-R | S | S | R | S |
| CC(C)(O/N=C(\C(=O)N[C@@H]1C(=O)N2C(C(=O)[O-])=C(C[n+]3ccccc3)CS[C@H]12)c1csc(N)n1)C(=O)O [CAZ, ceftazidime] | CAZ-R, TZP-R, CIP-R, TOB-R | S | R | S | S | CAZ-R, TZP-R, CIP-R | R | R | R | R |
| CO/N=C(\C(=O)N[C@@H]1C(=O)N2C(C(=O)[O-])=C(C[N+]3(C)CCCC3)CS[C@H]12)c1csc(N)n1 [FEP, cefepime] | DOR-R, IPM-R, MEM-R, FEP-R, | DOR-R, IPM-R, MEM-R, FEP-R, | I | R | S | DOR-R, IPM-R, MEM-R, FEP-R, | R | R | I | DOR-R, IPM-R, MEM-R, FEP-R, |
| C[C@@H](O)[C@H]1C(=O)N2C(C(=O)O)=C(S[C@@H]3CN[C@H](CNS(N)(=O)=O)C3)[C@H](C)[C@H]12 [DOR, doripenem] | DOR-R, IPM-R, MEM-R, FEP-R, | DOR-R, IPM-R, MEM-R, FEP-R, | R | S | R | DOR-R, IPM-R, MEM-R, FEP-R, | S | S | R | DOR-R, IPM-R, MEM-R, FEP-R, |
| C[C@@H](O)[C@H]1C(=O)N2C(C(=O)O)=C(S[C@@H]3CN[C@H](C(=O)N(C)C)C3)[C@H](C)[C@H]12 [MEM, meropenem] | DOR-R, IPM-R, MEM-R, FEP-R, | DOR-R, IPM-R, MEM-R, FEP-R, | R | S | R | DOR-R, IPM-R, MEM-R, FEP-R, | S | S | R | DOR-R, IPM-R, MEM-R, FEP-R, |
| NC[C@H]1O[C@H](O[C@H]2[C@H](O)[C@@H](O[C@H]3O[C@H](CO)[C@@H](O)[C@H](N)[C@H]3O)[C@H](N)C[C@@H]2N)[C@H](N)C[C@@H]1O [TOB, tobramycin] | CAZ-R, TZP-R, CIP-R, TOB-R | – | – | S | R | – | S | R | S | S |
